Experiments:
[1] = system: TRAIL-sensitive esophageal cancer cells; test: active-caspase 3 assay, effect of z-LEHD-FMK on TRAIL-sensitive cancer cells; format: cell-based, human; settings: extent of apoptosis slightly reduced
Description: Next, to determine the effect of z-LEHD-FMK on TRAIL-sensitive esophageal cancer cells (i.e., could z-LEHD-FMK also protect TRAIL-sensitive esophageal cancer cells from apoptosis), an active-caspase 3 assay was performed, as described above in the assay shown in FIG. 4A.

[2] = system: EPC2-GFP and TRAIL-sensitive TE2 mixed culture; test: active-caspase 3 assay in mixed culture; format: cell-based, human; settings: TRAIL 4 hours with z-LEHD-FMK
Description: Finally, to confirm the observation that there was preferential protection of z-LEHD-FMK on normal esophageal epithelial cells in TRAIL-mediated apoptosis, but no similar protection afforded to TRAIL-sensitive esophageal cancer cells, both EPC2-GFP (2×10^5 cells) and TRAIL-sensitive TE2 (5×10^5 cells) were grown as a mixed culture in a 6-well plate. The cells were treated with TRAIL for 4 hours in the presence, or absence, of z-LEHD-FMK. An active-caspase 3 assay was performed, and the two populations within the mixed-cells were distinguished by the presence (EPC2-GFP), or absence (TE2), of GFP. […] Experiments were done in duplicate (mean value±SD).

[3] = system: TRAIL-resistant HCE4, TE3, and TE5 cells; test: active-caspase 3 assay, adriamycin plus TRAIL; format: cell-based, human; settings: z-LEHD-FMK 20 μM added 2 hours before TRAIL
Description: Cells were treated with TRAIL (50 ng/mL final concentration) and 1 μg/mL of anti-6× His (N-terrninal histidine antibody) for 4 hours or for 16 hours. The caspase inhibitor was used at a final concentration of 20 μM, and was added 2 hours prior to the addition of TRAIL. When the cells were treated with both cycloheximide (CHX) and TRAIL, CHX (10 μg/mL final concentration) was added 6 hours before the addition of TRAIL. In the case of adriamycin, cells were pre-treated with adriamycin (0.5 μM final concentration) for 16 hours before the addition of TRAIL.
(§3) For detecting apoptosis mediated by TRAIL, an active-caspase 3 assay was performed using Cytofix/Cytoperm kit (Pharmingen, San Diego, Calif.), as previously described (Kim et al., Int. J. Oncol. 18:241-247 (2001)). Briefly, using standard techniques, 5×10^5 cells were seeded into a 6 well plate, after which, the cells were treated with TRAIL cross-linked with anti-6× His antibody. […] After washing, the cells were probed with 0.125 μg/μl of Phycoerythrin (PE)-conjugated goat anti-rabbit secondary antibody (Ab) (CALTAG Laboratories, Burlingame, Calif.) for 20 minutes in the dark. The intensity of PE was analyzed by flow cytometry using a Beckman-Coulter Epics Elite analyzer.
Accordingly, adriamycin was tested to determine whether its combination with TRAIL could induce synergistic cell killing in TRAIL-resistant esophageal cancer cells. TRAIL-resistant HCE4, TE3, and TE5 cells were pre-treated with 0.5 μM adriamycin for 16 hours, followed by incubation for 4 hours in the presence of TRAIL. z-LEHD-FMK (20 μM final concentration) was added 2 hours before the addition of TRAIL. An active-caspase 3 assay was used to determine whether apoptosis occurred.
Next, z-LEHD-FMK was tested in the HCE4, TE3 and TE5 cells to determine the protective effect of z-LEHD-FMK, if any, on the synergistic cell death driven by the combination of adriamycin with TRAIL.

[4] = system: normal esophageal epithelial EPC2 cells; test: effect of Ad-ILZ-TR derived TRAIL; format: cell-based; settings: EPC2 cells in the presence of z-LEHD-FMK
Text: (§1) To make an adenovirus expressing extra-cellular portion of TRAIL (amino acids (Aa) 95 to 281), pAdTRACK/CMV and pAdEasy systems were used as previously described (He et al., Proc. Natl. Acad. Sci. USA 95:2509-2514 (1998)). In short, the extra-cellular portion of TRAIL was amplified by PCR (polymerase chain reaction). The amplified fragment was fused directly to the signal peptide of a mouse Ig κ chain, which is secreted into the media from the cells. Then, an isoleucine zipper (ILZ) fragment was inserted between the signal peptide and TRAIL to induce self-trimerization (Harbury et al., Science 262:1401-1407 (1993)). The final resulting construct was cloned into pAdTRACK/CMV, and then a recombinant plasmid was generated in BJ5183 E. coli by co-transforming PmeI-digested TRAIL-cloned pAdTRACK/CMV and pAdEASY.
(§2) The recombinant plasmid was digested with PacI, and was used for transfection into […] 293 cells using Superfect (QIAGEN, Valencia, Calif.). Approximately five (5) days after transfection, when comet-like patches of the green cells appeared, the cells were harvested. The viruses were amplified and purified as previously described (El-Deiry et al., Cell 75:817-825 (1993)). The infectivity of the viruses was checked by the observation of green fluorescence using a fluorescence microscope. […]

[5] = system: EPC2 normal esophageal epithelial cells
Description: Normal human primary epithelial cells (EPC2, provided by Dr. Anil Rustgi, University of Pennsylvania) and primary human foreskin keratinocytes (HFK, provided by Dr. John C. Ansel, Emory University), were grown in Keratinocyte-SFM medium (Gibco BRL, Rockville, Md.) containing bovine pituitary extract (40 μg/mL) and epidermal growth factor (1 ng/mL). The primary epithelial cells were used at passage 4 or 5.
The N-terminal histidine (His) tagged recombinant human TRAIL (rhTRAIL, Thr-95 to Gly-281) was obtained from R&D Systems (Minneapolis, Minn.). A mouse monoclonal anti-6× His antibody (R&D Systems) was used for cross-linking the rhTRAIL. […] Cells were treated with TRAIL (50 ng/mL final concentration) and 1 μg/mL of anti-6× His (N-terrninal histidine antibody) for 4 hours or for 16 hours. The caspase inhibitor was used at a final concentration of 20 μM, and was added 2 hours prior to the addition of TRAIL. […] In the case of adriamycin, cells were pre-treated with adriamycin (0.5 μM final concentration) for 16 hours before the addition of TRAIL.
as §3

normal human hepatocytes = settings: Ozoren et al., 2000; cited from earlier work
[6] = system: TRAIL-sensitive SW480 colon cancer cells; test: apoptosis-inducing activity of adenovirus-expressed TRAIL; format: cell-based, human; settings: z-VAD-FMK 20 μM added 1 hour after onset of virus infection
Text: as §1, §2

[7] = system: all cells, including cancer cells; test: protection from the killing effect of TRAIL by caspase inhibitors; format: cell-based; settings: stated without experimental detail

Substance	effect of z-LEHD-FMK on TRAIL-mediated apoptosis [1]	TRAIL-mediated apoptosis in presence of z-LEHD-FMK, TE2 population ([2]; mixed culture with EPC2-GFP)	protection from TRAIL-mediated apoptosis, EPC2-GFP population ([2]; mixed culture with TE2)	effect of z-LEHD-FMK on cell death by adriamycin plus TRAIL ([3]; HCE4 cells)	effect of z-LEHD-FMK on cell death by adriamycin plus TRAIL ([3]; TE3 and TE5 cells)	protection from cell death by Ad-ILZ-TR derived TRAIL [4]	protection from cell killing by TRAIL plus adriamycin ([5]; EPC2 cells in the presence of z-LEHD-FMK)	protection from TRAIL-mediated apoptosis ([5]; EPC2 cells, TRAIL 50 ng/mL 4 hours, z-LEHD-FMK 20 μM added 2 hours before TRAIL)	rescue from TRAIL-mediated apoptosis (normal human hepatocytes)	cleavage of caspase 3 and PARP in Ad-ILZ-TR infected cells with inhibitor [6]	protection from the killing effect of TRAIL [7]
z-LEHD-FMK (HELM PEPTIDE1{[O=C(OCc1ccccc1)[*:2]].L.E.H.D.[FC[*:1]]}$$$$V2.0; SMILES CC(C)C[C@H](NC(=O)OCc1ccccc1)C(=O)N[C@@H](CCC(=O)O)C(=O)N[C@@H](Cc1c[nH]cn1)C(=O)N[C@@H](CC(=O)O)C(=O)CF)	still underwent apoptosis	continued to undergo apoptosis	almost completely protected	still killed in a synergistic way	almost completely blocked cell death	completely protected from cell death	almost completely protected from cell killing	completely protected	could rescue normal human hepatocytes	–	–
z-VAD-FMK	–	–	–	–	–	–	–	–	–	no cleavage was observed	protect all cells, including cancer cells, from the killing effect of TRAIL

From patent US20020169123A1, “Regulating apoptosis in TRAIL-resistant cancer cells, while protecting normal, non-cancerous cells” (THE TRUSTEES OF THE UNIVERSITY OF PENNSYLVANIA, priority 2001, published 2002)
